Source: patent US20030144346A1, “Methods and compositions for regulation of 5-alpha reductase activity” (priority 1997, published 2003)
Like-named read-outs stand apart in the source and are kept apart here.

Legend:
[1] = biological target: T1, type 1 human 5α-reductase (HRED1) (Homo sapiens, UniProt P18405); assay: Cell free assay of 5α-reductase, microsomes of rat 1A cells expressing type 1 isoenzyme (HRED1); assay type: biochemical; design: expressed in transfected cells; host or cells: rat 1A cells infected with pMV7 retrovirus; microsomes;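 further: microsomes from rat 1A cells expressing human type 1 5α-reductase, conversion of radiolabeled testosterone to dihydrotestosterone quantified by thin layer chromatography with radioanalytic scanning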
T1 sequence (P18405 1-259): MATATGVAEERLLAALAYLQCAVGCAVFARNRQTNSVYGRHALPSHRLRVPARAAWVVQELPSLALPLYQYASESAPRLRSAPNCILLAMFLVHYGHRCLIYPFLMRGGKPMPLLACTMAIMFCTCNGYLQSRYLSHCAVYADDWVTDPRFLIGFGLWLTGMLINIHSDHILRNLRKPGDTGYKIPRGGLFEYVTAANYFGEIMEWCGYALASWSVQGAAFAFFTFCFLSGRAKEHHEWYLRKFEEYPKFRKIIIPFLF

[2] = biological target: T2, type 2 human 5α-reductase (HRED2) (Homo sapiens, UniProt P31213); assay: Cell free assay of 5α-reductase, microsomes of rat 1A cells expressing type 2 isoenzyme (HRED2); assay type: biochemical; design: expressed in transfected cells; host or cells: rat 1A cells infected with pMV7 retrovirus; microsomes;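 further: labeled testosterone and its product dihydrotestosterone measured in microsomal reaction extracts via thin layer chromatography plus radioanalytic scanning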
T2 sequence (P31213 1-254): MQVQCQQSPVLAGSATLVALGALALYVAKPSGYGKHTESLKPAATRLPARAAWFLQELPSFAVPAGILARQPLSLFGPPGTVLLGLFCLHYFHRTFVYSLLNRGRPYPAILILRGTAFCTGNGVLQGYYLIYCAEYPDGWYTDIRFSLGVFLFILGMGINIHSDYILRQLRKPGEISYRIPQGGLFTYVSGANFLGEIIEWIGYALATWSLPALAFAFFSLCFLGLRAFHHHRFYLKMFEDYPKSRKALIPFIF

[3] = 100 uM, cell free assay, Table 2, read-out: HRED1 % Inhibition @ 100 uM
[4] = cell free assay, Table 2 catechols, read-out: HRED1 IC50
[5] = 100 uM, cell free assay, Table 2, read-out: HRED2 % Inhibition @ 100 uM
[6] = 100 uM, cell free assay, Table 3, read-out: HRED1 % Inhibition @ 100 uM
[7] = cell free assay, Table 3 curcumin and related compounds, read-out: HRED1 IC50
[8] = 100 uM, cell free assay, Table 3, read-out: HRED2 % Inhibition @ 100 uM
[9] = 100 uM, cell free assay, Table 1
[10] = cell free assay, Table 1 flavanoids, read-out: HRED1 IC50
[11] = cell free assay, Table 1 flavanoids, read-out: HRED2 IC50
[12] = 100 μM, cell free assay, Table 4, read-out: HRED1 % Inhibition @ 100 μM
[13] = cell free assay, Table 4 quinones, read-out: HRED1 IC50
[14] = 100 μM, cell free assay, Table 4, read-out: HRED2 % Inhibition @ 100 μM
[15] = cell free assay, Table 4 quinones, read-out: HRED2 IC50
[16] = 100 μM, cell free assay, Table 4
[17] = cell free assay, Table 2 catechols, read-out: HRED2 IC50
[18] = 100 uM, cell free assay, Table 2
[19] = cell-free assay, read-out: IC50, type 1 isoenzyme
[20] = read-out: IC50, type 2 isoenzyme
[21] = 100 uM, cell free assay, Table 3
[22] = cell free assay, Table 3 curcumin and related compounds, read-out: HRED2 IC50
[23] = 100 μM, cell free assay, Table 5
[24] = cell free assay, Table 5 epigallocatechin derivatives, read-out: HRED1 IC50
[25] = cell free assay, Table 5 epigallocatechin derivatives, read-out: HRED2 IC50

O=C1C=CC(=C(c2ccc(O)c(O)c2)c2ccccc2S(=O)(=O)O)C=C1O (mixture of isomers) [Pyrocatechol Violet]
inhibition at 100 µM [1, 3]: 85% | IC50 [1, 4]: 48 µM | inhibition at 100 µM [2, 5]: 47%

COc1cc(C=CC=O)ccc1O [4-hydroxy-3-methoxycinnamaldehyde]
inhibition at 100 µM [1, 6]: 10% | IC50 [1, 7]: > 100 µM | inhibition at 100 µM [2, 8]: -60% | IC50 ([2]; read-out: HRED2 IC50): > 100 µM

O=c1cc(-c2ccccc2)oc2c1ccc1ccccc12 [Alpha-napthoflavone]
HRED1 % Inhibition @ 100 uM [1, 9]: 6% | IC50 [1, 10]: > 100 µM | HRED2 % Inhibition @ 100 uM [2, 9]: (−13) % | IC50 [2, 11]: > 100 µM

O=C1c2ccc(O)cc2C(=O)c2ccc(O)cc21 [Anthraflavic Acid]
inhibition at 100 µM [1, 12]: 27% | IC50 [1, 13]: > 100 µM | inhibition at 100 µM [2, 14]: 22% | IC50 [2, 15]: > 100 µM

O=C1c2ccccc2C(=O)c2ccccc21 [Anthraquinone]
IC50 [1]: > 100 µM | inhibition at 100 µM ([1]; read-out: HRED1 % Inhibition @ 100 μM): 6% | IC50 ([1]; read-out: HRED1 IC50, cell free assay, Table 4 quinones): > 100 µM | IC50 [2]: > 100 µM | inhibition at 100 µM ([2]; read-out: HRED2 % Inhibition @ 100 μM): 9% | IC50 ([2]; read-out: HRED2 IC50, cell free assay, Table 4 quinones): > 100 µM

O=C1c2cccc(O)c2C(=O)c2cccc(O)c21 [Anthrarufin]
HRED1 % Inhibition @ 100 μM [1, 16]: 67% | inhibition at 100 µM [1, 12]: 67% | IC50 [1, 13]: 40 µM | HRED2 % Inhibition @ 100 μM [2, 16]: 13% | inhibition at 100 µM [2, 14]: 13% | IC50 [2, 15]: > 100 µM

O=c1cc(-c2ccccc2)oc2ccc3ccccc3c12 [Beta-napthoflavone]
HRED1 % Inhibition @ 100 uM [1, 9]: 3% | IC50 [1, 10]: > 100 µM | HRED2 % Inhibition @ 100 uM [2, 9]: 4% | IC50 [2, 11]: > 100 µM

O=c1c(Br)cc2c(-c3ccccc3S(=O)(=O)O)c3cc(Br)c(O)c(O)c3oc-2c1O [Bromopyrogallol Red]
inhibition at 100 µM [1, 3]: 98% | IC50 [1, 4]: 7 µM | inhibition at 100 µM [2, 5]: 58% | IC50 [2, 17]: 84 µM

COc1cc(CNC(=O)CCCC/C=C/C(C)C)ccc1O [Capsaicin]
IC50 [1]: > 100 µM | inhibition at 100 µM [1, 6]: 0% | IC50 [1, 7]: > 100 µM | IC50 [2]: > 100 µM | inhibition at 100 µM [2, 8]: 8% | IC50 ([2]; read-out: HRED2 IC50): > 100 µM

O=c1cc(-c2ccccc2)oc2cc(O)cc(O)c12 [Chrysin]
IC50 [1, 10]: > 100 µM | IC50 [2, 11]: > 100 µM

OC1c2ccccc2-c2ccccc2C1O (stereo not shown) [Cnc]
HRED1 % Inhibition @ 100 uM [1, 18]: 42% | IC50 [1, 4]: > 100 µM | HRED2 % Inhibition @ 100 uM [2, 18]: (−75) % | IC50 [2, 17]: > 100 µM

COC1=C(OC)C(=O)C(C/C=C(\C)CC/C=C(\C)CC/C=C(\C)CC/C=C(\C)CC/C=C(\C)CC/C=C(\C)CC/C=C(\C)CC/C=C(\C)CC/C=C(\C)CCC=C(C)C)=C(C)C1=O [Coenzyme q]
HRED1 % Inhibition @ 100 μM [1, 16]: 77% | IC50 [1, 13]: 12 µM | inhibitory activity against type 1 isoenzyme, in words ([1]; cell-free assay): potent cell-free inhibitors | HRED2 % Inhibition @ 100 μM [2, 16]: 81% | IC50 [2, 15]: 22 µM | inhibitory activity against type 2 isoenzyme, in words ([2]; cell-free assay): potent cell-free inhibitors

COc1cc(/C=C/CO)ccc1O [Coniferol]
IC50 [1, 7]: > 100 µM | IC50 [1, 19]: > 100 µM | IC50 [2, 20]: > 100 µM

CC(/C=C/C=C(\C)C(=O)O)=C\C=C\C=C(C)\C=C\C=C(/C)C(=O)O [Crocetin]
IC50 ([1]; cell free assay, Table 6 fatty acids, read-out: HRED1 IC50): 7 µM | IC50 ([2]; cell free assay, Table 6 fatty acids, read-out: HRED2 IC50): > 100 µM

COc1cc(CCC(=O)CC(=O)CCc2ccc(O)cc2)ccc1O [Demethoxytetrahydrocurcumin]
HRED1 % Inhibition @ 100 uM [1, 21]: 23% | IC50 [1, 7]: > 100 µM | HRED2 % Inhibition @ 100 uM [2, 21]: 42% | IC50 [2, 22]: > 100 µM

O=c1oc2c(O)c(O)cc3c(=O)oc4c(O)c(O)cc1c4c23 [Ellagic Acid]
inhibition at 100 µM [1, 3]: 7% | IC50 [1, 4]: > 100 µM | inhibition at 100 µM [2, 5]: 9% | IC50 [2, 17]: > 100 µM

C=CCc1ccc(O)c(OC)c1 [Eugenol]
IC50 [1, 7]: > 100 µM | IC50 [1, 19]: > 100 µM | inhibition at 100 µM ([1]; read-out: HRED1 % Inhibition @ 100 uM): 0% | inhibition at 100 µM ([2]; read-out: HRED2 % Inhibition @ 100 uM): 50% | IC50 [2, 20]: > 100 µM

O=c1ccc2cc(O)c(O)cc2o1 [Exculetin]
HRED1 % Inhibition @ 100 uM [1, 18]: 7% | IC50 [1, 4]: > 100 µM | HRED2 % Inhibition @ 100 uM [2, 18]: 13% | IC50 [2, 17]: > 100 µM

COc1cc(/C=C/C(=O)O)ccc1O [Ferulic Acid]
inhibition at 100 µM [1, 6]: 0% | IC50 [1, 7]: > 100 µM | IC50 [1, 19]: > 100 µM | inhibition at 100 µM [2, 8]: 18% | IC50 [2, 22]: > 100 µM | IC50 ([2]; cell-free assay, read-out: IC50, type 2 isoenzyme): > 100 µM

O=c1cc(-c2ccccc2)oc2ccccc12 [Flavone]
inhibition at 100 µM ([1]; 100 uM, cell free assay, Table 1, read-out: HRED1 % Inhibition @ 100 uM): 20% | IC50 [1, 10]: > 100 µM | inhibition at 100 µM ([2]; 100 uM, cell free assay, Table 1, read-out: HRED2 % Inhibition @ 100 uM): -52% | IC50 [2, 11]: > 100 µM

COc1cc2ccc(=O)oc2c(O)c1O [Fraxetin]
IC50 [1, 4]: > 100 µM | IC50 [2, 17]: > 100 µM

O=C(OC1Cc2c(O)cc(O)cc2OC1c1cc(O)c(O)c(O)c1)c1ccccc1 (stereo not shown) [HZIV 74]
HRED1 % Inhibition @ 100 μM [1, 23]: 85% | IC50 [1, 24]: 48 µM | HRED2 % Inhibition @ 100 μM [2, 23]: 24% | IC50 [2, 25]: > 100 µM

O=C(O)OC1Cc2c(O)cc(O)cc2OC1c1cc(O)c(O)c(O)c1 (stereo not shown) [HZIV 109]
HRED1 % Inhibition @ 100 μM [1, 23]: 17% | IC50 [1, 24]: > 100 µM | HRED2 % Inhibition @ 100 μM [2, 23]: 0% | IC50 [2, 25]: > 100 µM

O=C(C=Cc1cc(O)c(O)c(O)c1)OC1Cc2c(O)cc(O)cc2OC1c1cc(O)c(O)c(O)c1 (stereo not shown) [HZIV 134]
HRED1 % Inhibition @ 100 μM [1, 23]: 99% | IC50 [1, 24]: 20 µM | HRED2 % Inhibition @ 100 μM [2, 23]: 94% | IC50 [2, 25]: 67 µM

O=C(NCCc1cc(O)c(O)c(O)c1)c1cc(O)c(O)c(O)c1 [HZIV 275]
HRED1 % Inhibition @ 100 uM [1, 18]: 10% | IC50 [1, 4]: > 100 µM | HRED2 % Inhibition @ 100 uM [2, 18]: 6% | IC50 [2, 17]: > 100 µM

Oc1cc2c(cc1O)[C@@H]1c3ccc(O)c(O)c3OC[C@]1(O)C2 [Hematoxylin]
inhibition at 100 µM [1, 3]: 59% | IC50 [1, 4]: 83 µM | inhibition at 100 µM [2, 5]: 38% | IC50 [2, 17]: > 100 µM

NCCc1cc(O)c(O)c(O)c1 [Hydroxydopamine]
HRED2 % Inhibition @ 100 uM [2, 18]: 41%

CC(C)=CCC1=C(O)C(=O)c2ccccc2C1=O [Lapachol]
inhibition at 100 µM [1, 12]: 30% | IC50 [1, 13]: > 100 µM | inhibition at 100 µM [2, 14]: 9% | IC50 [2, 15]: > 100 µM

O=c1c(O)c(-c2ccc(O)cc2O)oc2cc(O)cc(O)c12 [Morin]
IC50 [1, 10]: > 100 µM | IC50 [2, 11]: > 100 µM

O=c1c(O)cccc2cc(O)c(O)c(O)c12 [Purpurogallin]
IC50 [1, 4]: 30 µM | IC50 [2, 17]: > 100 µM

O=c1ccc2c(-c3ccccc3S(=O)(=O)O)c3ccc(O)c(O)c3oc-2c1O [Pyrogallol Red]
IC50 [1, 4]: 15 µM | IC50 [2, 17]: > 100 µM
